These results are taken from patent publication US12275719B2, “Small molecule inhibitors of galectin-3” (BRISTOL-MYERS SQUIBB COMPANY, priority 2019, dated 2025).

The assay has as its target His-tagged recombinant human Gal-3 (hGal-3) (Homo sapiens, UniProt P17931). As to the kind of experiment: Gal-3 HTRF assay (hGal-3 / B-ASF binding inhibition). The method, then:
ASSAY BUFFER Composition: 25 mM HEPES, 100 mM NaCl, 0.005% Tween 20, 0.05% BSA prepared in sterile water (all reagents from Sigma).
Positive Control: 100% DMSO (1 μL)+His-tagged hGal-3 (20 μL)+β-ASF (20 μL)+Anti-His Terbium Antibody (5 μL)+Strep d2 Antibody (5 μL).
Negative Control: 100% DMSO (1 μL)+His-tagged hGal-3 (20 μL)+Anti His Terbium Antibody (5 μL)+Strep d2 Aantibody (5 μL).
PROTOCOL: The Gal-3 assays were performed in 384 white Opti plates in three replicates at room temperature with gentle shaking at 250-300 rpm From the original stocks, […] working stock concentrations of His-tagged recombinant human Gal-3 (hGal-3) and that of B-ASF were prepared. From the working stock, 20 μL of hGal-3 (15 nM) and 20 μL B-ASF (15 nM) were added to the plates. In Negative Control, only hGal-3 was added. A concentration range of 50× working stocks were prepared for the compounds in 100% DMSO. Aliquots of 1 μL of the compounds were added to the wells and pre-incubated with 20 μL hGal-3 per well for 30 minutes Then 20 μL B-ASF were added and incubated for another 1 hour. To detect the signal, 5 μL (final conc. of 1.0 nM) terbium labelled Anti-His antibody was added and incubated for 30 min followed by adding 5 μL (final conc. of 20 nM) Streptavidin d2 and incubation for another 1 hour. The assay signal was detected using HTRF screen protocol (Excitation wavelength=340 nm, emission wavelength=615 nm/665 nm) on Envision 2104 Multilabel Reader. Data analysed using Toolset and Curve Master. Results are reported in the experimental section (IC50 in μM).
For orientation: In TR-FRET formats the signal depends on donor and acceptor labels being close together.

Where [1] appears, read: Examples 26 to 29 and 66 to 68, HTRF, 15 nM hGal-3, 15 nM B-ASF.
[2] abbreviates: text of Examples 1 to 4, HTRF, 15 nM hGal-3, 15 nM B-ASF.

One may read the IC50 as the concentration at which inhibition is half-maximal.

His-tagged recombinant human Gal-3 (hGal-3), sequence (P17931 whole entry): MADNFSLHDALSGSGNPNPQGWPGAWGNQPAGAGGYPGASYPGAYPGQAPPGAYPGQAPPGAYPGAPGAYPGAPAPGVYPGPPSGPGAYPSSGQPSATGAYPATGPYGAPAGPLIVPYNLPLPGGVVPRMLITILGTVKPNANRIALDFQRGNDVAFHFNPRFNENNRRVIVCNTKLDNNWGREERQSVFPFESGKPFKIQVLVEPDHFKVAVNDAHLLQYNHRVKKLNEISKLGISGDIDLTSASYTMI

Turning to `OC[C@H]1O[C@@H](c2n[nH]c(=S)n2-c2cc(Cl)ccc2C(F)(F)F)[C@H](O)[C@@H](n2cc(-c3ccc(Br)c(F)c3F)nn2)[C@H]1O` (single isomer, unassigned) [Example 27], under setting [1], the half-maximal inhibitory concentration (IC50) came to 76 nM.
On to `OC[C@H]1O[C@@H](c2n[nH]c(=S)n2-c2cc(Cl)ccc2C(F)(F)F)[C@H](O)[C@@H](n2cc(-c3ccc(Br)c(F)c3F)nn2)[C@H]1O` (single isomer, unassigned) [Example 28], for which the IC50 under setting [1] amounted to 6.9 nM.
In the case of `Cc1nc([C@@H]2O[C@H](CO)[C@H](O)[C@H](n3cc(-c4ccc(Br)c(F)c4F)nn3)[C@H]2O)n(-c2ccc3ncsc3c2)n1` [Example 1, (2S,3R,4R,5R,6R)-2-(1-(Benzo[d]thiazol-6-yl)-3-methyl-1H-1,2,4-triazol-5-yl)-4-(4-(4-bromo-2,3-difluorophenyl)-1H-1,2,3-triazol-1-yl)-6-(hydroxymethyl)tetrahydro-2H-pyran-3,5-diol], the IC50 under setting [2] is 7 nM.
Still for that read-out and setting: to `CO[C@@H]1[C@@H](n2cc(-c3ccc(Br)c(F)c3F)nn2)[C@@H](O)[C@@H](CO)O[C@H]1c1nc(C)nn1-c1ccc2ncsc2c1` [Example 2, (2R,3R,4S,5R,6S)-6-(1-(Benzo[d]thiazol-6-yl)-3-methyl-1H-1,2,4-triazol-5-yl)-4-(4-(4-bromo-2,3-difluorophenyl)-1H-1,2,3-triazol-1-yl)-2-(hydroxymethyl)-5-methoxytetrahydro-2H-pyran-3-ol] belongs 13 nM; to `COc1cc(-c2cn([C@H]3[C@@H](O)[C@@H](CO)O[C@@H](c4nc(C)nn4-c4cc(Cl)ccc4C(F)(F)F)[C@@H]3O)nn2)cc(F)c1Cl` [Example 3, (2S,3R,4R,5R,6R)-2-(1-(5-Chloro-2-(trifluoromethyl)phenyl)-3-methyl-1H-1,2,4-triazol-5-yl)-4-(4-(4-chloro-3-fluoro-5-methoxyphenyl)-1H-1,2,3-triazol-1-yl)-6-(hydroxymethyl)tetrahydro-2H-pyran-3,5-diol], 14 nM.
In the case of `CNC(=O)CO[C@@H]1[C@@H](n2cc(-c3cc(F)c(Cl)c(F)c3)nn2)[C@@H](O)[C@@H](CO)O[C@H]1c1nc(C)nn1-c1cc(Cl)ccc1C(F)(F)F` [Example 4, 2-(((2S,3R,4S,5R,6R)-2-(1-(5-chloro-2-(trifluoromethyl)phenyl)-3-methyl-1H-1,2,4-triazol-5-yl)-4-(4-(4-chloro-3,5-difluorophenyl)-1H-1,2,3-triazol-1-yl)-5-hydroxy-6-(hydroxymethyl)tetrahydro-2H-pyran-3-yl)oxy)-N-methylacetamide], the 50% inhibitory concentration (IC50) under setting [2] came to 23 nM.
As for `Cc1nc([C@@H]2O[C@H](CO)[C@H](O)[C@H](n3cc(-c4ccc5ccccc5c4F)nn3)[C@H]2O)n(-c2cc(Cl)ccc2C(F)(F)F)n1` [Example 6], the 50% inhibitory concentration (IC50) (table of Examples 5 to 25) was 62 nM.
The same measure, in the same setting: with `Cc1nc([C@@H]2O[C@H](CO)[C@H](O)[C@H](n3cc(-c4ccc(Cl)c(Cl)c4F)nn3)[C@H]2O)n(-c2cc(Cl)ccc2C(F)(F)F)n1` [Example 7] the figure was 6 nM.
Consider `Cc1nc([C@@H]2O[C@H](CO)[C@H](O)[C@H](n3cc(-c4ccc(Br)c(F)c4F)nn3)[C@H]2O)n(-c2cc(Cl)ncc2C(F)(F)F)n1` [Example 9], for which, where the note is “table of Examples 5 to 25”, the IC50 worked out at 12 nM.
Still for that read-out and setting: with `Cc1nc([C@@H]2O[C@H](CO)[C@H](O)[C@H](n3cc(-c4ccc(Br)c(F)c4F)nn3)[C@H]2O)n(-c2cc(Cl)ccc2OC(F)(F)F)n1` [Example 10] the figure was 11 nM; with `Cc1nc([C@@H]2O[C@H](CO)[C@H](O)[C@H](n3cc(-c4ccc(Cl)c(F)c4Cl)nn3)[C@H]2O)n(-c2cc(Cl)ccc2C(F)(F)F)n1` [Example 11], 14 nM; with `Cc1nc([C@@H]2O[C@H](CO)[C@H](O)[C@H](n3cc(-c4ccc(Br)cc4F)nn3)[C@H]2O)n(-c2cc(Cl)ccc2C(F)(F)F)n1` [Example 12], 56 nM.
Same read-out and setting: to `Cc1nc([C@@H]2O[C@H](CO)[C@H](O)[C@H](n3cc(-c4ccc(C#N)c(F)c4F)nn3)[C@H]2O)n(-c2cc(Cl)ccc2C(F)(F)F)n1` [Example 13] belongs 19 nM.
On the same count and under the same terms, with `COc1c(Cl)ccc(-c2cn([C@H]3[C@@H](O)[C@@H](CO)O[C@@H](c4nc(C)nn4-c4cc(Cl)ccc4C(F)(F)F)[C@@H]3O)nn2)c1F` [Example 14] the figure was 137 nM; with `Cc1nc([C@@H]2O[C@H](CO)[C@H](O)[C@H](n3cc(-c4ccc(Br)c(Cl)c4F)nn3)[C@H]2O)n(-c2cc(Cl)ccc2C(F)(F)F)n1` [Example 15], 96 nM; with `Cc1nc([C@@H]2O[C@H](CO)[C@H](O)[C@H](n3cc(-c4ccc(Br)c(F)c4C)nn3)[C@H]2O)n(-c2cc(Cl)ccc2C(F)(F)F)n1` [Example 16], 74 nM.
Take `Cc1nc([C@@H]2O[C@H](CO)[C@H](O)[C@H](n3cc(-c4ccc(Cl)c(C)c4F)nn3)[C@H]2O)n(-c2cc(Cl)ccc2C(F)(F)F)n1` [Example 17]: the IC50 (table of Examples 5 to 25) turned out to be 18 nM.
The same measure, in the same setting: to `COc1cc(-c2cn([C@H]3[C@@H](O)[C@@H](CO)O[C@@H](c4nc(C)nn4-c4cc(Cl)ccc4C(F)(F)F)[C@@H]3O)nn2)cc2ccccc12` [Example 18] belongs 1330 nM; to `COc1cc(-c2cn([C@H]3[C@@H](O)[C@@H](CO)O[C@@H](c4nc(C)nn4-c4cc(Cl)ccc4C(F)(F)F)[C@@H]3O)nn2)cc(F)c1Br` [Example 19], 23 nM; to `Cc1nc([C@@H]2O[C@H](CO)[C@H](O)[C@H](n3cc(-c4ccc(Cl)c(F)c4F)nn3)[C@H]2O)n(-c2ccc3ncsc3c2)n1` [Example 20], 9 nM.
The same measure, in the same setting: to `CO[C@@H]1[C@@H](n2cc(-c3ccc(Cl)c(F)c3F)nn2)[C@@H](O)[C@@H](CO)O[C@H]1c1nc(C)nn1-c1ccc2ncsc2c1` [Example 21] belongs 10 nM; to `Cc1nc([C@@H]2O[C@H](CO)[C@H](O)[C@H](n3cc(-c4ccc(Cl)c(F)c4F)nn3)[C@H]2O)n(-c2cc(Cl)cnc2C(F)(F)F)n1` [Example 22], 55 nM; to `Cc1nc([C@@H]2O[C@H](CO)[C@H](O)[C@H](n3cc(-c4ccc(Br)c(F)c4F)nn3)[C@H]2O)n(-c2cc(Cl)ccc2C2CC2)n1` [Example 23], 20 nM.
`OC[C@H]1O[C@@H](c2nncn2-c2cc(Cl)ccc2C(F)(F)F)[C@H](O)[C@@H](n2cc(-c3ccc(Br)c(F)c3F)nn2)[C@H]1O` [Example 26, (2S,3R,4R,5R,6R)-4-(4-(4-bromo-2,3-difluorophenyl)-1H-1,2,3-triazol-1-yl)-2-(4-(5-chloro-2-(trifluoromethyl)phenyl)-4H-1,2,4-triazol-3-yl)-6-(hydroxymethyl)tetrahydro-2H-pyran-3,5-diol]: under setting [1], the IC50 is 10 nM.
On the same count and under the same terms, to `OC[C@H]1O[C@@H](c2nncn2-c2cc(Cl)ccc2C(F)(F)F)[C@H](OCC(F)F)[C@@H](n2cc(-c3ccc(Br)c(F)c3F)nn2)[C@H]1O` [Example 29, (2R,3R,4S,5R,6S)-4-(4-(4-bromo-2,3-difluorophenyl)-1H-1,2,3-triazol-1-yl)-6-(4-(5-chloro-2-(trifluoromethyl)phenyl)-4H-1,2,4-triazol-3-yl)-5-(2,2-difluoroethoxy)-2-(hydroxymethyl)tetrahydro-2H-pyran-3-ol] belongs 11 nM.
In the case of `CO[C@@H]1[C@@H](n2cc(-c3ccc(Br)c(F)c3)nn2)[C@@H](O)[C@@H](CO)O[C@H]1c1ncnn1-c1cc(Cl)ccc1C(F)(F)F` [Example 30], the 50% inhibitory concentration (IC50) (table of Examples 30 to 65) is 22 nM.
Take `CO[C@@H]1[C@@H](n2cc(-c3cc(F)c(Br)c(F)c3)nn2)[C@@H](O)[C@@H](CO)O[C@H]1c1ncnn1-c1cc(Cl)ccc1C(F)(F)F` [Example 31]: the IC50 (table of Examples 30 to 65) amounted to 24 nM.
The same measure, in the same setting: to `OC[C@H]1O[C@@H](c2nncn2-c2cc(Cl)ccc2C(F)(F)F)[C@H](O)[C@@H](n2cc(-c3cc(F)c(Cl)c(Cl)c3)nn2)[C@H]1O` [Example 34] belongs 20 nM; to `CO[C@@H]1[C@@H](n2cc(-c3ccc(Br)c(F)c3F)nn2)[C@@H](O)[C@@H](CO)O[C@H]1c1nncn1-c1cc(Cl)ccc1C(F)(F)F` [Example 35], 9.3 nM; to `CO[C@@H]1[C@@H](n2cc(-c3cc(F)c(Cl)c(Cl)c3)nn2)[C@@H](O)[C@@H](CO)O[C@H]1c1nncn1-c1cc(Cl)ccc1C(F)(F)F` [Example 36], 35 nM.
Still for that read-out and setting: with `OC[C@H]1O[C@@H](c2nncn2-c2cc(Cl)ccc2C(F)(F)F)[C@H](O)[C@@H](n2cc(-c3c(F)c(F)c(Br)c(F)c3F)nn2)[C@H]1O` [Example 37] the figure was 5.7 nM; with `OC[C@H]1O[C@@H](c2nncn2-c2cc(Cl)ccc2OC(F)(F)F)[C@H](O)[C@@H](n2cc(-c3ccc(Br)c(F)c3F)nn2)[C@H]1O` [Example 38], 11 nM.
On to `OC[C@H]1O[C@@H](c2nncn2-c2cc(Cl)ccc2OC(F)(F)F)[C@H](O)[C@@H](n2cc(-c3c(F)c(F)c(Br)c(F)c3F)nn2)[C@H]1O` [Example 47], for which the half-inhibitory concentration (IC50) (table of Examples 30 to 65) is 14 nM.
For the compound `CO[C@@H]1[C@@H](n2cc(-c3ccc(Br)c(F)c3F)nn2)[C@@H](O)[C@@H](CO)O[C@H]1c1nncn1-c1cc(Cl)ccc1OC(F)(F)F` [Example 48], where the note is “table of Examples 30 to 65”, the IC50 came out at 14 nM.
